Read-outs that look alike come from different tables or passages of the source.
How the values were obtained:
VDR with NCoR = target: T1, VDR with NCoR (Homo sapiens, UniProt P11473); test: Mammalian two-hybrid assay, dissociation of NCoR from the VDR
T1 sequence (P11473 1-427): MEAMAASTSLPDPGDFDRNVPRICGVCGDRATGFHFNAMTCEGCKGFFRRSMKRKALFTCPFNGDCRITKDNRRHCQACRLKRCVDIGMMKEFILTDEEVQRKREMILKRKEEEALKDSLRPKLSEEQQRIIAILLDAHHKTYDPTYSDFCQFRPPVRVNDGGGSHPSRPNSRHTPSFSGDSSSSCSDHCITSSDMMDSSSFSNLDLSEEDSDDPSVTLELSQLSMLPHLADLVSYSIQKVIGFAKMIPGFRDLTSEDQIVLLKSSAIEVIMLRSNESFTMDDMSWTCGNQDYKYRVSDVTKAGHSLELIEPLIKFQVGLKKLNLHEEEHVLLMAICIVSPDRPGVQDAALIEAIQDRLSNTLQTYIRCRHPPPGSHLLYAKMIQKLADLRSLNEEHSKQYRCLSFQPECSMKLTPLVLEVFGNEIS

[1] = system: CYP24A1 expression in all cells (HEK293, SW480, U937, HaCaT, MG63, H292); test: CYP24A1 expression (RT-qPCR), all cells tested; conditions: 100 nM, 24 h
recombinant hVDR-LBD [2] = target: T2, recombinant hVDR-LBD (Homo sapiens, UniProt P11473); conditions: for fold lower activity of rapidly eluting epimer than the other 25-epimer: affinity for human VDR, within each 25-epimer pair; for VDR affinity, % of that of 1,25(OH)2D3: relative to 1,25(OH)2D3
T2 sequence (P11473 140-427): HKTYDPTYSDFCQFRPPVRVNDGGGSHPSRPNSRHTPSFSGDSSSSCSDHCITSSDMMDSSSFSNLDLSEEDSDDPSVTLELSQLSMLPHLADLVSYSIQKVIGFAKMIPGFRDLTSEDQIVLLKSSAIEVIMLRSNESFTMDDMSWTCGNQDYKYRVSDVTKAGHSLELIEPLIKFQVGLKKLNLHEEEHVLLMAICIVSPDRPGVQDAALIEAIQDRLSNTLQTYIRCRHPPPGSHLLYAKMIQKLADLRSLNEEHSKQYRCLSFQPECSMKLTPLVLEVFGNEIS

recombinant hVDR-LBD [3] = target: T2, recombinant hVDR-LBD; test: biochemical
[4] = system: human dedifferentiated fat (DFAT) cells; test: Osteogenic differentiation assay: ALP activity in human DFAT cells; format: cell-based; conditions: osteogenic medium, 100 nM, 7 days, natural hormone 1 = 100%
Experimental: Mature adipocytes from the adipose tissue of mammals such as humans and rodents can be dedifferentiated into pluripotent cells using ceiling culture. Dedifferentiated fat (DFAT) cells have potential applications in both regenerative medicine and injury healing, as well as mesenchymal stem cells, embryonic stem cells, and induced pluripotent stem cells. The osteogenic activity of vitamin D derivatives was assessed based on alkaline phosphatase (ALP) activity.
Samples of human subcutaneous adipose tissue were obtained from patients who underwent surgery in the Department of Pediatric Surgery at Nihon University Itabashi Hospital (Tokyo, Japan). The patients gave their written informed consent, and the Ethics Committee of Nihon University School of Medicine approved this study. We prepared dedifferentiated fat (DFAT) cells using the ceiling culture method, as described previously. Briefly, the adipose tissue (approximately 1 g) was cut into small pieces and digested with a 0.1% type I collagenase solution (Koken Co., Ltd., Tokyo, Japan). […] The cells that adhered to the upper surface of the flasks were cultured for conversion to dedifferentiated fat cells. […] Cells at passages 2–4 were used for differentiation experiments.
Cells were grown to confluency in 24-well plates and incubated for a week in DMEM containing 10% FBS, 100 nM dexamethasone (Merk), 10 mM β-glycerophosphate (Merk), and […] L-ascorbic acid-2-phosphate (Merk), with 100 nM of each compound. The induction medium was replaced on day 4. The alkaline phosphatase (ALP) activity in the cell lysates was determined on day 7 with a lab assay ALP kit (Fujifilm wako). The total protein content was determined with the BCA protein assay kit (Thermo Fisher Scientific). ALP levels were normalized to the total protein content.

hVDR = target: T3, hVDR (Homo sapiens, UniProt P11473); test: VDR transactivation luciferase reporter assay in HEK293 cells (SPP×3-tk-LUC); format: cell-based; conditions: for Transcriptional activity efficacy: 1,25(OH)2D3 = 100%; for Emax: read-out: Transcriptional Activity % Efficacy of That of 1 (converted)
T3 construct: expressed in transfected cells; host or cells: HEK293
T3 sequence (P11473 1-427): T1 sequence (P11473 1-427)
Experimental: The transcriptional activity of the 25-alkylvitamin D analogs on the VDR was evaluated via a luciferase reporter assay in HEK293 human kidney cells transfected with an hVDR expression vector and a luciferase reporter with mouse osteopontin vitamin D response elements (VDREs, SPP×3-tk-LUC).
Transfections of 50 ng of TK-Spp × 3-LUC reporter plasmid, 10 ng of pCMX-β-galactosidase, and 15 ng of pCMX-VDR for each well of a 96-well plate were performed in HEK293 cells using the calcium phosphate coprecipitation method, as described previously. The mammalian two-hybrid assay for cofactor interaction with VDR used 50 ng of TK-MH100(UAS) × 3- LUC reporter plasmid, 10 ng of pCMX-β-galactosidase, 15 ng of pCMX-GAL4-RXRα, pCMX-GAL4-SRC1, or pCMX-GAL4-NCoR, and 15 ng of pCMX-VP16-VDR for each well of a 96-well plate. Luciferase and β-galactosidase activities were measured with a luminometer and a microplate reader (Molecular Devices, Sun Jose, CA, USA), respectively. Luciferase values were normalized to the internal β-galactosidase control.
HEK293 cells were co-transfected with TK-Spp × 3-LUC reporter plasmid and pCMX−VDR, and 8 h after transfection the cells were treated with several concentrations of each compound. After 24 h, the cells were harvested for assaying luciferase and β-galactosidase activity using a luminometer (Molecular Devices, Sunnyvale, CA, USA).

VDR with RXRα = target: T4, VDR with RXRα (Homo sapiens, UniProt P11473); test: Mammalian two-hybrid assay, interaction of the VDR with RXRα
T4 sequence (P11473 1-427): T1 sequence (P11473 1-427)
T4 sequence (P19793 1-462 partner): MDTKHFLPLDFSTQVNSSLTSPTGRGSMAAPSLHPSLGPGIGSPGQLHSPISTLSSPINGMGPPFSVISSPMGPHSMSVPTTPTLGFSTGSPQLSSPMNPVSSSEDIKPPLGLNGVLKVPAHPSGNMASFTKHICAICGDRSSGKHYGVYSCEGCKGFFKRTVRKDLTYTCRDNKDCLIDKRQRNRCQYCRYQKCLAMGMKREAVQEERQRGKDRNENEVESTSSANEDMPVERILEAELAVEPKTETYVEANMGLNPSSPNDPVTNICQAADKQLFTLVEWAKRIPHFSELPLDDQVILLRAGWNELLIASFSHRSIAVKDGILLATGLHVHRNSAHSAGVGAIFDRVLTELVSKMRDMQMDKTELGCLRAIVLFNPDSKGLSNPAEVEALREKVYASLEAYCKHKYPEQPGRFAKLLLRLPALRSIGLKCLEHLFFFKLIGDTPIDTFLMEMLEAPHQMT

VDR with SRC-1 = target: T5, VDR with SRC-1 (Homo sapiens, UniProt P11473); test: Mammalian two-hybrid assay, VDR binding to SRC-1
T5 sequence (P11473 1-427): T1 sequence (P11473 1-427)
T5 sequence (Q15788 595-771 partner limits assumed): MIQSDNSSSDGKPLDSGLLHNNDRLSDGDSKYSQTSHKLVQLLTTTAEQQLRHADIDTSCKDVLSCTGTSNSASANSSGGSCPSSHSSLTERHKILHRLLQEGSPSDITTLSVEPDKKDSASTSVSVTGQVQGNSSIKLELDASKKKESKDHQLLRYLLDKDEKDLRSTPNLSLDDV

[5] = system: CYP24A1 expression in SW480 cells; test: CYP24A1 expression (RT-qPCR) in SW480 cells; conditions: SW480 intestine cells, 100 nM, 24 h
[6] = system: CYP24A1 expression in MG63 cells; test: CYP24A1 expression (RT-qPCR) in MG63 cells; conditions: MG63 bone cells, 100 nM, 24 h
[7] = system: CYP24A1 expression in U937 cells; test: CYP24A1 expression (RT-qPCR) in U937 cells; conditions: U937 blood cells, 100 nM, 24 h
[8] = system: CYP24A1 expression in HEK293 cells; test: CYP24A1 expression (RT-qPCR) in HEK293 cells; conditions: HEK293 kidney cells, 100 nM, 24 h
[9] = system: CYP24A1 expression in H292 cells; test: CYP24A1 expression (RT-qPCR) in H292 cells; conditions: H292 lung cells, 100 nM, 24 h
[10] = system: CYP24A1 expression in HaCaT cells; test: CYP24A1 expression (RT-qPCR) in HaCaT cells; conditions: HaCaT skin cells, 100 nM, 24 h
VDR [11] = test: VDR affinity, previously reported; format: binding; conditions: 25R versus 25S epimer; values of ref 42
VDR [12] = conditions: literature values, cited from earlier work
VDR [13] = conditions: literature values; read-out: VDR Affinity IC50; cited from earlier work
[14] = read-out: Transcriptional activity EC50
[15] = this study, read-out: Transcriptional Activity EC50

| Structure (SMILES) | IC50 (VDR with NCoR) [nM] | CYP24A1 expression activity in all cells [1] | fold lower activity of rapidly eluting epimer than the other 25-epimer (recombinant hVDR-LBD [2]) | VDR affinity, % of that of 1,25(OH)2D3 (recombinant hVDR-LBD [2]) [%] | IC50 (recombinant hVDR-LBD [3]) [nM] | ALP activity [4] [%] | Transcriptional activity efficacy (hVDR) [%] | EC50 (hVDR; [14]) [nM] | Emax (hVDR; this study) [%] | EC50 (hVDR; [15]) [nM] | EC50 (VDR with RXRα) [nM] | EC50 (VDR with SRC-1) [nM] | also measured |
| --- | --- | --- | --- | --- | --- | --- | --- | --- | --- | --- | --- | --- | --- |
| C=C1[C@H](O)CC(=C/C=C2\CCC[C@]3(C)[C@@H]([C@H](C)CC#C[C@](C)(O)C45CC6CC(CC(C6)C4)C5)CC[C@@H]23)C[C@H]1O [ADKM1, (25R)-25-(1-Adamantyl)-1α,25-dihydroxy-2-methylidene-23-yne-19,27-dinorvitamin D3] | 2.3 | 10-50% | 5–11 fold | 6 | 6.2 | 41 | 78 | 0.53 | 78 | 0.5 | 1.1 | 8.4 |  |
| C=C1[C@H](O)CC(=C/C=C2\CCC[C@]3(C)[C@@H]([C@H](C)CC#C[C@@](O)(CC)C45CC6CC(CC(C6)C4)C5)CC[C@@H]23)C[C@H]1O [ADKM3, (25R)-25-(1-Adamantyl)-1a,25-dihydroxy-26-methyl-2-methylidene-23-yne-19,27-dinorvitamin D3] | 6.3 | 10-50% | 5–11 fold | 6 | 6.7 | 40.4 | 90 | 2.33 | 90 | 2.3 | 1.1 | 10.2 |  |
| C=C1[C@H](O)CC(=C/C=C2\CCC[C@]3(C)[C@@H]([C@H](C)CC#C[C@](O)(CC)C45CC6CC(CC(C6)C4)C5)CC[C@@H]23)C[C@H]1O [ADKM4, (25S)-25-(1-Adamantyl)-1a,25-dihydroxy-26-methyl-2-methylidene-23-yne-19,27-dinorvitamin D3] | 0.5 |  |  | 27 | 1.3 | 72.6 | 104 |  | 104 | 0.2 | 1.1 | 1.2 | CYP24A1 expression relative to natural hormone 1 [5]: 126%; CYP24A1 expression relative to natural hormone 1 [6]: 73.3%; CYP24A1 expression relative to natural hormone 1 [7]: 85.1%; CYP24A1 expression relative to natural hormone 1 [8]: 91.5%; CYP24A1 expression relative to natural hormone 1 [9]: 113%; CYP24A1 expression relative to natural hormone 1 [10]: 91.9% |
| C=C1[C@H](O)CC(=C/C=C2\CCC[C@]3(C)[C@@H]([C@H](C)CC#C[C@@](O)(CCCC)C45CC6CC(CC(C6)C4)C5)CC[C@@H]23)C[C@H]1O [ADKM5, (25R)-25-(1-Adamantyl)-1α,25-dihydroxy-2-methylidene-26-propyl-23-yne-19,27-dinorvitamin D3] | 8.5 | 10-50% | 5–11 fold | 2 | 23.4 | 19 | 83 | 2.63 | 83 | 2.6 | 5.2 | 2.4 |  |
| C=C1[C@H](O)CC(=C/C=C2\CCC[C@]3(C)[C@@H]([C@H](C)CC#C[C@H](O)C45CC6CC(CC(C6)C4)C5)CC[C@@H]23)C[C@H]1O [ADTK2] |  |  |  |  |  |  |  |  |  |  |  |  | times less potent than 5b (25S) (VDR [11]): 24 times; Transcriptional Activity % Efficacy of That of 1 (VDR [12]): > 38%; EC50 (VDR [12]; read-out: Transcriptional Activity EC50): 6.6 nM; IC50 (VDR [13]): 12 nM |

Source: article PMC10377034, “Syntheses of 25-Adamantyl-25-alkyl-2-methylidene-1α,25-dihydroxyvitamin D3 Derivatives with Structure–Function Studies of Antagonistic and Agonistic Active Vitamin D Analogs” (Biomolecules, 2023)
